The values that follow come from ChEMBL document CHEMBL1144243, “Isolation, structure, and antibacterial activity of thiazomycin A, a potent thiazolyl peptide antibiotic from Amycolatopsis fastidiosa” (Bioorg Med Chem, 2008).

In general, solubility refers to the concentration that dissolves in the medium under given conditions. Read a low solubility as a poorly soluble substance. By IC50 is commonly meant the concentration at which inhibition is half-maximal. Low readings indicate higher potency, high ones lower potency.

One data set relates to Haemophilus influenzae. Kind of data set: Antibacterial activity against Haemophilus influenzae MSD2261 after 18 to 20 hrs by serial dilution method. The format is functional.
In another data set the test system is Escherichia coli. Kind of data set: Antibacterial activity against Escherichia coli MB2884 after 18 to 20 hrs by serial dilution method. The format is functional.
A further data set has as its system Candida albicans. Put plainly: Antimicrobial activity against Candida albicans MY1055 after 18 to 20 hrs by serial dilution method. It counts as functional.
A short description of data set [1]: Aqueous solubility of the compound. The format is physicochemical. The settings on record: water.
The subject of the next data set is Enterococcus faecalis. Put plainly: Antibacterial activity against vancomycin-susceptible Enterococcus faecalis CL8516 after 18 to 20 hrs by serial dilution method. It counts as functional.
The test system of data set [2] is Staphylococcus aureus. Kind of data set: Antibacterial activity against methicillin-susceptible Staphylococcus aureus MB2865 after 18 to 20 hrs by serial dilution method. It counts as functional.
In data set [3] the test system is Staphylococcus aureus. Put plainly: Antibacterial activity against Staphylococcus aureus EP167 after 18 to 20 hrs by serial dilution method. It counts as functional.
Data set [4] relates to Staphylococcus aureus. Put plainly: Inhibition of peptidoglycan synthesis in Staphylococcus aureus EP167 after 30 mins by scintillation counter. It counts as functional, organism-based.
For data set [5], the system named is Staphylococcus aureus. Kind of data set: Inhibition of DNA synthesis in Staphylococcus aureus EP167 after 30 mins by scintillation counter. It counts as functional, organism-based.
For a further data set, the system named is Streptococcus pneumoniae. Put plainly: Antibacterial activity against penicillin-susceptible Streptococcus pneumoniae CL2883 after 18 to 20 hrs by serial dilution method. It counts as functional.
The subject of data set [6] is Staphylococcus aureus. Kind of data set: Antibacterial activity against methicillin-resistant Staphylococcus aureus MB5393 containing COL plasmid after 18 to 20 hrs by serial dilution method. It counts as functional.
The test system of data set [7] is Staphylococcus aureus. Kind of data set: Inhibition of RNA synthesis in Staphylococcus aureus EP167 after 30 mins by scintillation counter. The format is functional, organism-based.
Data set [8] deals with Staphylococcus aureus. Kind of data set: Inhibition of protein synthesis in Staphylococcus aureus EP167 after 30 mins by scintillation counter. It counts as functional, organism-based. The settings on record: 0.5 h.
Data set [9] deals with Staphylococcus aureus. Kind of data set: Inhibition of phospholipid synthesis in Staphylococcus aureus EP167 after 30 mins by scintillation counter. The format is functional, organism-based.

In brackets after ≈: the same amount, converted by molar mass. Activity calls are given as the source filed them. The calls are words filed in the database; no cut-off is given here. Some results are limits rather than exact numbers.

Take `CC(=O)NC[C@H]1CN(c2ccc(N3CCOCC3)c(F)c2)C(=O)O1` [LINEZOLID]: the MIC in the data set on Haemophilus influenzae, in the data set on Escherichia coli and in the data set with Candida albicans was more than 32 µg/mL throughout.

As for `C=C(NC(=O)c1csc(-c2nc3c(cc2O)-c2nc(cs2)C(=O)N[C@@H]([C@@H](C)O)C(=O)N/C(=C(\C)OC)c2nc(cs2)C(=O)N[C@@H]2c4nc(cs4)C(=O)N[C@@H](COC(=O)c4c5c6c(cccc6n4O)COC(=O)[C@@H](O[C@H]4C[C@]6(C)OC(C)N(C)[C@@H]6[C@H](C)O4)[C@H]2OC5)c2nc-3cs2)n1)C(N)=O` (some centres undefined) [THIAZOMYCIN A], the solubility in data set [1] is less than 100 µg/mL. In addition, the MIC was 0.25 µg/mL (≈ 0.172 µM) in the data set on Enterococcus faecalis; more than 32 µg/mL against Haemophilus influenzae; 0.06 µg/mL (≈ 0.0414 µM) with Staphylococcus aureus [2]; more than 32 µg/mL in the data set with Escherichia coli; more than 32 µg/mL against Candida albicans; 0.004 µg/mL (≈ 0.00276 µM) in the data set on Staphylococcus aureus [3]. Also, the MIC against Streptococcus pneumoniae worked out at 0.002 µg/mL (≈ 0.00138 µM); in the data set with Staphylococcus aureus [6], 0.06 µg/mL (≈ 0.0414 µM). Moreover, the result in the data set on Staphylococcus aureus [4], in the data set with Staphylococcus aureus [5], in the data set on Staphylococcus aureus [7] and in the data set with Staphylococcus aureus [9] was inactive. The compound also returned an IC50 in the data set on Staphylococcus aureus [8] of 0.7 µg/mL (≈ 0.483 µM).

In the case of `C=C(NC(=O)c1csc(-c2nc3c(cc2O)-c2nc(cs2)C(=O)N[C@@H]([C@@H](C)O)C(=O)N/C(=C(\C)OC)c2nc(cs2)C(=O)N[C@@H]2c4nc(cs4)C(=O)N[C@@H](COC(=O)c4c5c6c(cccc6n4O)COC(=O)[C@@H](O[C@H]4C[C@]6(C)OCN(C)[C@@H]6[C@H](C)O4)[C@H]2OC5)c2nc-3cs2)n1)C(N)=O` [THIAZOMYCIN], the MIC in the data set on Enterococcus faecalis is 0.064 µg/mL (≈ 0.0446 µM); against Haemophilus influenzae, more than 32 µg/mL; against Staphylococcus aureus [2], 0.016 µg/mL (≈ 0.0111 µM); against Escherichia coli it was more than 32 µg/mL; with Candida albicans, more than 32 µg/mL; with Streptococcus pneumoniae, 0.004 µg/mL (≈ 0.00279 µM). In addition, in the data set on Staphylococcus aureus [6], the MIC stood at 0.032 µg/mL (≈ 0.0223 µM).
